Laboratory results published in patent US20260325502A1, “COMPOSITION FOR PREVENTING OR TREATING CANCER PAIN” (MARUISHI PHARMACEUTICAL CO., LTD., priority 2023, published 2026).
“Also recorded” adds a separate entry of the source.

What was measured:
central nervous system = conditions: rats; Table 2 in Non-Patent Literature 9; cited from earlier work
[1] = Non-Patent Literatures 2 and 8; cited from earlier work
[2] = tested on: cancer pain animal models; conditions: pregabalin; Non-Patent Literature 2; cited from earlier work
serotonin 3 receptor = conditions: Patent Literatures 1 and 2; cited from earlier work
[3] = tested on: cancer pain model rats (MRMT-1 rat breast cancer cells, bone metastasis model); test: Measurement of pain threshold in bone metastasis cancer pain model rats (Dynamic Plantar Aesthesiometer); format: in vivo, Crl:CD (SD); conditions: 10 mg/kg and 30 mg/kg, oral
Description: Five-week-old female Crl:CD (SD) SPF rats (Charles River Japan) were injected with MRMT-1 cells (rat breast cancer cells) at 3×10^4 cells/20 μL/body into the medullary cavity at the proximal end of the diaphysis of the right tibia to create a bone metastasis model (day 0). On day 10 after the transplantation of the cancer cells (day 10), the rats were divided into 4 groups of 8 rats each: a control group (with administration of distilled water (trade name: Otsuka Distilled Water) manufactured by Otsuka Pharmaceutical Factory, Inc.), a 10 mg/kg compound A administration group, a 30 mg/kg compound A administration group, and a morphine administration group, as shown in Table 1 below. On day 11 after the transplantation of the cancer cells (day 11), each drug was orally or subcutaneously administered to the rats at a dose of 2 mL/kg. The pain threshold (g) of the plantar surface of the right hind paw was measured using a Dynamic Plantar Aesthesiometer (37450, Ugo Basile) under blinded conditions 1, 3, 6, and 24 hours after the administration. The average value of the pain threshold-time area under the curve (AUC) (g·hr) for 24 hours post-administration was determined for each group.

rats = test: Measurement of coordinated motor ability (rotarod); format: in vivo, rat, SD
Description: Five- to six-week-old male SD-SPF rats (Japan SLC, Inc.) were used in this experiment. The experimental schedule included training using a rotarod (SN445, Shinano Seisakusyo) for 3 days (6 times a day), starting from 3 days before the day of administration. On the day of administration, pre-values (time to stay on the rotarod before the administration of compound A or distilled water) were measured twice, and the rats that spent 180 seconds or more on the rotarod in either of the two measurements were selected. The rats were divided into 3 groups of 6 rats each: a control group (with administration of distilled water (trade name: Otsuka Distilled Water) manufactured by Otsuka Pharmaceutical Factory, Inc.), a 10 mg/kg compound A administration group, and a 30 mg/kg compound A administration group, as shown in Table 3 below. Compound A or distilled water was orally administered to the rats at a dose of 10 mL/kg, and the time to stay on the rotarod was measured 1, 3, 6, and 24 hours after the administration under the test conditions of 10 rotations/min with a cutoff of 180 seconds.

mice = test: Measurement of spontaneous locomotor activity (Supermex); format: in vivo, mouse, ICR
Description: Five-to six-week-old male ICR-SPF mice (Japan SLC, Inc.) were divided into 5 groups of 8 mice each: a control group (with administration of distilled water (trade name: Otsuka Distilled Water) manufactured by Otsuka Pharmaceutical Factory, Inc.), two 10 mg/kg compound A administration groups, and two 30 mg/kg compound A administration groups, as shown in Table 2 below. Compound A or distilled water at a dose of 10 mL/kg was orally administered to the mice. One or three hours after the administration of compound A or distilled water, the mice were transferred to a measurement cage, and spontaneous locomotor activity was measured for 30 minutes using Supermex (registered trademark) (Muromachi Kikai Co., Ltd.).

[4] = summary of Experiments 1 and 2, 10 to 30 mg/kg

## CC(C)C[C@H](CN)CC(=O)O [Pregabalin]
Central nervous system
  influence on central nervous system relative to analgesic dose: suppresses the functions of the central nervous system (inhibits coordinated motor ability) at a dose lower than that is required to exert an analgesic effect
[1]
  side effects: sedative effects such as dizziness, drowsiness, and loss of consciousness
[2]
  effect in cancer pain animal models: effective in cancer pain animal models

## NC1CCN(c2cccc(Cl)n2)CC1 [compound A, 1-(6-chloropyridin-2-yl) piperidin-4-amine]
Serotonin 3 receptor
  activity at serotonin 3 receptor: serotonin 3 receptor agonist
[3]; single dose, right hind paw, measured 1, 3, 6 and 24 h after administration, Dunnett's test, critical value of 1%, n = 8, FIG. 1
  cancer pain threshold compared to control group: significant difference was observed; also recorded: significantly increased
[3]; versus morphine 3 mg/kg subcutaneous, up to 24 h after administration
  pain threshold-time area under the curve (AUC) compared to subcutaneous morphine: no statistically significant difference
rats; 10 mg/kg and 30 mg/kg, oral, 1, 3, 6 and 24 h after administration, 10 rotations/min, cutoff 180 s, Dunnett's or Steel's test, critical value of 5%, n = 6, FIG. 3
  changes in coordinated motor ability (time to stay on the rotarod) compared to control group: No statistically significant difference was observed; also recorded: no significant changes
rats; [4]
  suppression of coordinated motor ability at a dose that induces an analgesic effect: does not suppress spontaneous locomotor activity or coordinated motor ability
mice; 10 mg/kg and 30 mg/kg, oral, 1 or 3 h after administration, measured for 30 min, Dunnett's test, critical value of 5%, n = 8, FIG. 2
  changes in spontaneous locomotor activity compared to control group: No statistical difference was observed; also recorded: no significant changes
mice; [4]
  suppression of spontaneous locomotor activity at a dose that induces an analgesic effect: does not suppress spontaneous locomotor activity
